US11739350B2 (priority 2018, dated 2023)

Tested on: HPAFII tumours
Set-up: species or system SCID mice
Conditions: mouse, in vivo, ip

**Q.** With GSK126 as the substance, how does the tumor volumes read?
**A.** 1609.3 mm^3
